Drawing on DBAASP, this text covers MIC for 10 compounds.

Each structure is given as a SMILES string. Converted amounts (≈) assume the structure as drawn.

Broadly, the MIC is the lowest concentration that inhibits growth of the organism. A higher MIC goes with a less susceptible organism.

Some test systems named below: Alternaria alternata; Botrytis cinerea; Cladosporium herbarum; Cupriavidus necator H16; Escherichia coli JM109.
What all share (assay): ≥ marks a high value that may be exact or a test limit, other limits are often not marked, values filed in µg/mL are converted to µM
Test [1] relates to Bacillus subtilis DSM 347.
Test [2] concerns Escherichia coli DH5alpha.
Test [3] concerns Franconibacter helveticus DSM 18396.
Test [4] has as its system Kocuria rhizophila DSM 348.
The subject of test [5] is Escherichia coli ATCC 11219.
Test [6] concerns Klebsiella pneumoniae ATCC 10031.
In test [7] the test system is Pseudomonas aeruginosa ATCC 13388.
For test [8], the system named is Salmonella enterica subsp. enterica serovar Typhimurium ATCC 14028.
The test system of test [9] is Staphylococcus aureus ATCC 6538.
Test [10] concerns Bacillus cereus ATCC 11778.
Test [11] has as its system Escherichia coli ATCC 35218.
In test [12] the test system is Pseudomonas aeruginosa ATCC 9027.
The subject of test [13] is Staphylococcus aureus ATCC 25923.
Test [14] has as its system Clavibacter michiganensis subsp. michiganensis DSM 46294.
In test [15] the test system is Pectobacterium carotovorum subsp. carotovorum DSM 30168.
Test [16] relates to Pseudomonas corrugata DSM 7228.
In test [17] the test system is Pseudomonas syringae pv. syringae DSM 10604.
Test [18] concerns Pseudomonas syringae pv. tomato DC3000.
Test [19] has as its system Xanthomonas vesicatoria DSM 50861.
The test system of test [20] is Escherichia coli ATCC 25922.
The test system of test [21] is Xanthomonas axonopodis pv. glycines ISBF 327.
Test [22] deals with Escherichia coli BL21(DE3).
Test [23] concerns Pseudomonas putida GPp104.

With `CC[C@H](C)[C@H](NC(=O)CN)C(=O)NCC(=O)N[C@@H](CCCCN)C(=O)N[C@@H](C)C(=O)N[C@@H](CC(C)C)C(=O)N[C@@H](Cc1cnc[nH]1)C(=O)N[C@@H](CO)C(=O)N[C@@H](C)C(=O)N[C@@H](CCCCN)C(=O)N[C@@H](CCCCN)C(=O)N[C@@H](Cc1ccccc1)C(=O)NCC(=O)N[C@@H](CCCCN)C(=O)N[C@@H](C)C(=O)N[C@@H](Cc1ccccc1)C(=O)N[C@H](C(=O)NCC(=O)N[C@@H](CCC(=O)O)C(=O)N[C@H](C(=O)N[C@@H](CCSC)C(=O)N[C@@H](CC(N)=O)C(=O)N[C@@H](CO)C(=O)O)[C@@H](C)CC)C(C)C` [GIGKALHSAKKFGKAFVGEIMNS], the MIC in test [1] is at least 32 µM; in test [2] it was at least 128 µM; in [3], at least 128 µM; in test [4] it was at least 256 µM.

As to `CC[C@H](C)[C@H](NC(=O)CN)C(=O)NCC(=O)N[C@@H](CCCCN)C(=O)N[C@@H](Cc1ccccc1)C(=O)N[C@@H](CC(C)C)C(=O)N[C@@H](Cc1cnc[nH]1)C(=O)N[C@@H](CO)C(=O)N[C@@H](C)C(=O)N[C@@H](CCCCN)C(=O)N[C@@H](CCCCN)C(=O)N[C@@H](Cc1ccccc1)C(=O)N[C@@H](C)C(=O)N[C@@H](CCCCN)C(=O)N[C@@H](C)C(=O)N[C@@H](Cc1ccccc1)C(=O)N[C@H](C(=O)NCC(=O)N[C@@H](CCC(=O)O)C(=O)N[C@H](C(=O)N[C@@H](CCSC)C(=O)N[C@@H](CC(N)=O)C(=O)N[C@@H](CO)C(=O)O)[C@@H](C)CC)C(C)C` [GIGKFLHSAKKFAKAFVGEIMNS], the MIC in test [1] came to 1 µM (≈ 2.48 µg/mL); in test [2] it was 16 µM (≈ 39.7 µg/mL); in test [3], 4 µM (≈ 9.92 µg/mL); in test [4] it was 8 µM (≈ 19.8 µg/mL).

Turning to `CC[C@H](C)[C@H](NC(=O)CN)C(=O)N[C@@H](Cc1cnc[nH]1)C(=O)N[C@@H](CC(=O)O)C(=O)N[C@H](C(=O)N[C@@H](C)C(=O)N[C@@H](CCCCN)C(=O)N[C@@H](Cc1ccc(O)cc1)C(=O)NCC(=O)N[C@@H](CCCCN)C(=O)N1CCC[C@H]1C(=O)N[C@@H](CO)C(N)=O)[C@@H](C)CC` [GIHDIAKYGKPS], the MIC in test [5] is at least 50 µM; in test [6], 20 µM (≈ 25.7 µg/mL); in [7] it was at least 50 µM; in test [8] it was over 50 µM; in test [9], 5 µM (≈ 6.42 µg/mL).

With `CC(C)C[C@H](NC(=O)[C@@H](NC(=O)[C@H](CCCCN)NC(=O)[C@@H](N)CCCCN)C(C)C)C(=O)N[C@@H](CCCCN)C(=O)N[C@@H](C)C(=O)N[C@@H](C)C(=O)N[C@@H](C)C(N)=O` [KKVLKAAA], the MIC in [10] was at least 50 µM; in [11], at least 50 µM; in [12], over 50 µM; in [13], over 50 µM.

With `CC[C@H](C)[C@H](NC(=O)[C@H](CC(C)C)NC(=O)[C@H](CCCCN)NC(=O)[C@H](CCCN=C(N)N)NC(=O)[C@@H](N)CCCCN)C(=O)N[C@@H](Cc1ccccc1)C(=O)N[C@@H](CC(C)C)C(=O)N[C@@H](C)C(=O)N[C@@H](C)C(=O)N[C@@H](Cc1ccccc1)C(=O)N[C@@H](CC(C)C)C(=O)N[C@@H](C)C(=O)N[C@@H](C)C(=O)N[C@@H](CC(C)C)C(=O)N[C@@H](C)C(=O)N[C@@H](CC(C)C)C(=O)N[C@@H](Cc1ccccc1)C(=O)N[C@@H](CCCCN)C(=O)N[C@@H](CCCCN)C(=O)N[C@@H](CCCN=C(N)N)C(N)=O` [KRKLIFLAAFLAALALFKKR], the MIC with Alternaria alternata was at least 43.1 µM; in the test with Botrytis cinerea it was at least 43.1 µM; against Cladosporium herbarum, 17.2 µM (≈ 40 µg/mL); in test [14], 1.08 µM (≈ 2.5 µg/mL); in test [15], 17.2 µM (≈ 40 µg/mL); in [16] it was 17.2 µM (≈ 40 µg/mL). The minimal inhibitory concentration (MIC) in [17] was determined as 17.2 µM (≈ 40 µg/mL); in test [18] it was 17.2 µM (≈ 40 µg/mL); in test [19], 8.62 µM (≈ 20 µg/mL).

Take `CC(C)C[C@H](NC(=O)[C@H](CCC(N)=O)NC(=O)[C@H](CCCN=C(N)N)NC(=O)[C@H](CC(C)C)NC(=O)[C@H](CC(C)C)NC(=O)[C@@H](NC(=O)[C@H](CC(C)C)NC(=O)[C@@H](NC(=O)[C@H](CCCN=C(N)N)NC(=O)[C@H](CCCN=C(N)N)NC(=O)[C@H](CCCCN)NC(=O)[C@H](C)NC(=O)[C@@H](N)CC(C)C)C(C)C)[C@@H](C)O)C(=O)N[C@@H](CCCN=C(N)N)C(=O)N[C@@H](CCCN=C(N)N)C(=O)N[C@H](C(=O)N[C@@H](CO)C(=O)N1CCC[C@H]1C(=O)N[C@@H](CO)C(=O)N[C@@H](CO)C(N)=O)C(C)C` [LAKRRVLTLLRQLRRVSPSS]: the minimum inhibitory concentration (MIC) in test [20] was found to be 14 µM (≈ 32.9 µg/mL); in test [21], 2 µM (≈ 4.7 µg/mL).

Regarding `CC[C@H](C)[C@H](NC(=O)[C@H](C)NC(=O)[C@@H]1CCCN1C(=O)[C@H](CCCN=C(N)N)NC(=O)[C@@H](N)CC(C)C)C(=O)N[C@@H](CC(C)C)C(=O)N[C@H](C(=O)N[C@@H](CCCN=C(N)N)C(=O)N[C@H](C(=O)N[C@@H](CCCCN)C(=O)NCC(=O)N[C@@H](CCCCN)C(=O)NCC(=O)N[C@@H](CC(C)C)C(N)=O)C(C)C)C(C)C` [LRPAILVRVKGKGL], in [21], the MIC is at least 42 µM.

Consider `CC(C)[C@H](NC(=O)[C@H](C)NC(=O)[C@H](CCCN=C(N)N)NC(=O)[C@H](CCCCN)NC(=O)[C@H](C)NC(=O)[C@H](Cc1ccccc1)NC(=O)[C@H](CCCN=C(N)N)NC(=O)[C@H](C)NC(=O)[C@H](Cc1ccccc1)NC(=O)[C@H](CCCN=C(N)N)NC(=O)[C@H](CCCCN)NC(=O)[C@@H](N)CCCN=C(N)N)C(N)=O` [RKRFARFAKRAV], for which the minimum inhibitory concentration (MIC) is at least 66.4 µM with Alternaria alternata; at least 66.4 µM with Botrytis cinerea; 26.6 µM (≈ 40 µg/mL) against Cladosporium herbarum; 13.3 µM (≈ 20 µg/mL) in [14]; 26.6 µM (≈ 40 µg/mL) in [15]; 26.6 µM (≈ 40 µg/mL) in [16]. For the same compound, the MIC in [17] was 26.6 µM (≈ 40 µg/mL); in test [18], 3.32 µM (≈ 5 µg/mL); in [19], 26.6 µM (≈ 40 µg/mL).

For `CC[C@H](C)[C@H](NC(=O)[C@H](Cc1ccc(O)cc1)NC(=O)[C@@H](NC(=O)[C@@H]1CCCN1C(=O)[C@H](CCCN=C(N)N)NC(=O)[C@@H]1CCCN1C(=O)[C@H](CC(C)C)NC(=O)[C@@H](N)CCCN=C(N)N)C(C)C)C(=O)N1CCC[C@H]1C(=O)N[C@@H](CCC(N)=O)C(=O)N1CCC[C@H]1C(=O)N[C@@H](CCCN=C(N)N)C(=O)N1CCC[C@H]1C(=O)N1CCC[C@H]1C(=O)N[C@@H](Cc1cnc[nH]1)C(=O)N1CCC[C@H]1C(=O)N[C@@H](CCCN=C(N)N)C(=O)N[C@@H](CC(C)C)C(=O)O` [RLPRPVYIPQPRPPHPRL], the minimum inhibitory concentration (MIC) with Cupriavidus necator H16 is at least 50 µM; in test [22], 1.25 µM (≈ 2.74 µg/mL); with Escherichia coli JM109 it was 25 µM (≈ 54.7 µg/mL); in test [23], 12.5 µM (≈ 27.4 µg/mL).

For `CC[C@H](C)[C@H](NC(=O)CNC(=O)[C@@H](N)Cc1c[nH]c2ccccc12)C(=O)N[C@@H](CCCN=C(N)N)C(=O)N[C@@H](CCCN=C(N)N)C(=O)N[C@H](C(=O)N[C@@H](CC(C)C)C(=O)N[C@@H](CCCCN)C(=O)N[C@@H](Cc1ccc(O)cc1)C(=O)NCC(=O)N[C@@H](CCCCN)C(=O)N[C@@H](CCCN=C(N)N)C(=O)N[C@@H](CO)C(=O)O)[C@@H](C)CC` [WGIRRILKYGKRS], the MIC in test [5] worked out at 10 µM (≈ 16.3 µg/mL); in test [6], 20 µM (≈ 32.7 µg/mL); in test [7], 4 µM (≈ 6.53 µg/mL); in [8] it was 10 µM (≈ 16.3 µg/mL); in [9], 4 µM (≈ 6.53 µg/mL).
